# Legend:
# [1] = test system: L3.6 pancreatic cancer cells; assay: MTT cell viability assay, C6-Ceramide / chemo agents / pathway inhibitors; format: cell-based, human; details: 48 h; for L3.6 cell viability, agent alone: LY 294002 1 μM, rapamycin 100 nM, U0126 1 μg/ml, Gemcitabine 1 μg/ml; for cell death: MTT
# Method: L3.6 pancreatic cancer cells, cultured either in basic DMEM medium or with 10% FBS, were treated with indicated doses of Taxol in the presence or absence of C6 Ceramide (10 μg/ml) for 48 hours, cell viability was detected by MTT assay (FIGS. 4A and B). L3.6 cells, cultured either in basic DMEM medium or with 10% FBS, were treated with indicated dose of C6 Ceramide in the presence or absence of Taxol (1.5 μg/ml) for 48 hours, cell viability was detected by MTT assay as described (FIGS. 4C and D). Mitomycin C (10 μg/ml) was always present in the media to prevent cell proliferation from occurring. The data represent the mean±SD of at least triplicate experiments. *P<0.05 versus group without C6 Ceramide presents (FIGS. 4A and B). **P<0.05 versus group without Taxol presents (C and D).
# (§1) Mitomycin C (10 ug/ml) was always present in the media to prevent cell proliferation from occurring.
# FIG. 9 depicts data showing the effect of survival pathway inhibitors on cytotoxicity of Taxol and Gemcitabine in L3.6 pancreatic tumor cells. L3.6 cells were pretreated with various inhibitors including PI3K/AKT inhibitor LY 294002 (LY, 1 μM), mTORC1 inhibitor rapamycin (100 nM), MEK/ERK inhibitor U0126 (1 μg/ml), alone or in the presence of Taxol (1.5 μg/ml) or Gemcitabine (1 μg/ml) for 48 hours, with cell death detected 48 hours later (FIG. 9, left). Effects of various inhibitors as mentioned above on AKT/mTORC1 and ERK activation were also examined by Western blots using commercially available antibodies (FIG. 9, right). *P<0.05 versus group without C6 Ceramide presents. […] In FIG. 9, left panel, the DMSO=left bar; LY294002=second left bar; U0126=middle bar; Rapamycin=second right bar; and LY+U0126=right bar.
# (§2) Cell viability was measured by the 3-(4,5-dimethylthiazol-2-yl)-2,5-diphenyltetrazolium bromide (MTT) method, as described previously (Cao, C., et al. Sci Signal, 2: ra17, 2009; and Vanhaesebroeck, B., et al. Annu Rev Biochem, 70: 535-602, 2001). Briefly, the cells were collected and seeded in 96-well plate at a density of 2×10^5 cells/cm^2. Different seeding densities were optimized at the beginning of the experiments. After overnight incubation cells were exposed to fresh medium containing indicated reagents at 37° C. After incubation for different time periods, 20 μl of MTT tetrazolium (Sigma, St. Louis, Mo.) salt dissolved in Hank's balanced salt solution at a concentration of 5 mg/ml was added to each well and incubated in a CO2 incubator for an additional 4 hours. The medium was subsequently aspirated from each well and 150 μl of DMSO (Sigma, St. Louis, Mo.) was added to dissolve formazan crystals and the absorbance of each well was obtained using a Dynatech MR5000 plate reader at a test wavelength of 490 nm with a reference wavelength of 630 nm.
# MIA-PaCa2 (MIA) cells = assay: MTT cell viability assay, C6-Ceramide with chemo agents; format: cell-based, human; details: MIA cells (FIG. 6C), basic DMEM; Gemcitabine 3 μg/ml, Taxol 15 ug/ml, C6-Ceramide 10 ug/ml, Cetuximab 10 ug/ml
# Method: as §1, §2
# Panc-1 = assay: as above; format: cell-based, human; details: Panc-1 (FIG. 6B), basic DMEM; Gemcitabine 3 μg/ml, Taxol 15 ug/ml, C6-Ceramide 10 ug/ml, Cetuximab 10 ug/ml
# Method: as §1, §2
# L3.6 pancreatic cells = format: in vivo; details: for tumor volume and mouse survival: Taxol 3 mg/kg, C6-Ceramide 10 mg/kg, I.P. 3x/wk, vs control treatment group
# Method: SCID/Beige/Taconic nude male mice, 22-25 g, 6-8 weeks old were ear tagged and randomized into 4 different groups (Control, Ceramide, Paclitaxel, Ceramide+Paclitaxel) of 5 mice each prior to inoculation s.c. with 2×10^6 L3.6 cells in a volume 0.1 ml into the internal surface of the right thigh. Treatment was started 4 days after L3.6 cell injection with thrice weekly (3×/wk) intraperitoneal (I.P.) injections of Paclitaxel 3.0 mg/kg with or without C6-Ceramide (10 mg/kg) for 2 weeks. Mice survival (A and C), tumor volume (in cm^3) (B), mice body weight (in grams) were recorded (E). Average rate of tumor development was calculated by total tumor volume dividing by total number of days monitored (D).
# FIG. 7A and FIG. 7D: SCID/Beige/Taconic nude male mice, 22-25 g, 6-8 weeks old were ear tagged and randomized into 4 different groups (Control, Ceramide, Gemcitabine, Ceramide+Gemcitabine) combining 5 mice each prior to inoculation s.c. with 2×10^6 L3.6 cells in a volume 0.1 ml into the internal surface of the right thigh. Treatment was started 4 days after L3.6 cell injection with thrice weekly (3×/wk) intraperitoneal (I.P.) injections of Gemcitabine (two doses: […]) with or without C6-Ceramide ([…]) for 2 weeks. […] Mice survival (A, B and E) and tumor volume (in cm^3) (C and D) were recorded (E). In (E), the left bar indicates treatment without C6, and the right bar indicates treatment with C6.
# SCID/Beige/Taconic male mice were inoculated with 2×10^6 L3.6 pancreatic cells and begun treatment 4 days post tumor implant with thrice weekly (3×/wk) intraperitoneal (I.P.) injections of Paclitaxel (Taxol) 3.0 mg/kg or Gemcitabine (Gem) 10 mg/kg—after treatment and were autopsied when near death (as per IRB committee). Mouse survival, tumor volume (in cm^3), and body weight (in grams) were recorded. Average rate of tumor development was calculated by dividing total tumor volume by total number of days monitored.
# AKT/mTORC1 and ERK = assay: Western blot of AKT/mTORC1 and ERK activation in L3.6 cells; format: cell-based, human; details: 2-6 h, Gemcitabine 1 μg/ml, Taxol 1.5 μg/ml, C6 Ceramide 10 μg/ml
# Excerpt: Antibody binding was detected with the enhanced chemiluminescence (ECL) detection system (Amersham Biosciences, Piscataway, N.J.).
# [2] = test system: L3.6 pancreatic cancer cells; assay: MTT cell viability assay, C6-Ceramide / chemo agents / pathway inhibitors; format: cell-based, human; details: L3.6 (FIG. 6A), basic DMEM; Gemcitabine 3 μg/ml, Taxol 15 ug/ml, C6-Ceramide 10 ug/ml, Cetuximab 10 ug/ml
# CaOV3 cells = assay: Confocal microscopy of C6-NBD ceramide entry into ovarian cancer cells; format: cell-based, human; details: for effect on C6 ceramide entry into the cells: CaOV3 cells pretreated with inhibitor, C6-NBD-ceramide; for effect on polarized entry of C6 ceramide: CaOV3 cells pretreated 1 h, then C6-NBD
# Method: (A and C) CaOV3 cells were cultured in 8-well chamber slides and treated with C6-NBD ceramide (6 μg/ml). (B) The cells were fixed with formaldehyde at various times following treatment or were treated with the indicated doses of C6-NBD-ceramide, with or without fixation. The cells were processed and observed under a confocal microscope.
# CaOV3 cells were cultured in 8-well chamber slides and treated with or without (A) a lipid raft/caveolae inhibitor or with (B) water channel inhibitors, CuSO4 or NiCl2. The cells were fixed with formaldehyde, processed and observed under a confocal microscope.
# (A) CaOV3 cells were cultured in 8-well chamber slides, pretreated with taxol or doxorubicin for 1 h and then treated with C6-NBD-ceramide for 5 or 15 min. The cells were fixed with formaldehyde and processed for confocal microscopy. (B) The cells were pretreated with taxol and then C6-NBD-ceramide and processed for confocal microscopy without fixation.
# The cells were plated in eight-well chamber slides (Lab-Tek; Nalge Nunc International, Naperville, Ill., USA) and treated with various reagents, including C6-NBD ceramide, taxol and CuSO4. Next, the cells were either left untreated or were fixed for 20 min in fresh 4% paraformaldehyde-PBS. The cell nuclei were also stained with Hoechst (1 μg/ml in PBS) for 10 min. The slides were mounted with anti-fade (Life Technologies, Grand Island, N.Y., USA) and stored in the dark until viewing. The samples were observed under a confocal microscope and images were captured by Zen 2009 Light Edition (Carl Zeiss AG, Oberkochen, Germany).
# [3] = L3.6, basic DMEM medium, Taxol 1.5 ug/ml, C6-ceramide 10 ug/ml
# [4] = L3.6 cultured in 10% FBS, C6-Ceramide 2.5 μg/ml, Taxol 1.5 μg/ml
SMILES,"L3.6 cell viability, agent alone ([1]; Taxol 1.5 μg/ml)",cell death (MIA-PaCa2 (MIA) cells),cell death (Panc-1),cell death [2],effect on C6 ceramide entry into the cells (CaOV3 cells),other results
"N#CC(=C(N)Sc1ccccc1N)C(C#N)=C(N)Sc1ccccc1N [Fraction U0126, 1,4-diamino-2,3-dicyano-1,4-bis[2-aminophenylthio]butadiene]",little or no significant effect,–,–,–,–,–
"Nc1ccn([C@@H]2O[C@H](CO)[C@@H](O)C2(F)F)c(=O)n1 [Gemcitabine, gemcitabine]",little or no significant effect,"None of Gemcitabine (3 μg/ml), Taxol (15 ug/ml) or C6-Ceramide (10 ug/ml) alone had a significant effect","None of Gemcitabine (3 μg/ml), Taxol (15 ug/ml) or C6-Ceramide (10 ug/ml) alone had a significant effect","None of Gemcitabine (3 μg/ml), Taxol (15 ug/ml) or C6-Ceramide (10 ug/ml) alone had a significant effect",–,"survival and tumor growth (L3.6 pancreatic cells; Gemcitabine 5 mg/kg and 10 mg/kg, C6-ceramide 10 mg/kg, I.P. 3x/wk for 2 weeks): limited effect on survival and tumor growth; AKT/mTORC1 and ERK activation (AKT/mTORC1 and ERK): no effect"
O=S(=O)([O-])[O-].[Cu+2] [CuSO4],–,–,–,–,inhibits C6 ceramide entry into the cells,–
"CC(=O)O[C@H]1C(=O)[C@@]2(C)[C@H]([C@H](OC(=O)c3ccccc3)[C@]3(O)C[C@H](OC(=O)[C@H](O)[C@@H](NC(=O)c4ccccc4)c4ccccc4)C(C)=C1C3(C)C)[C@]1(OC(C)=O)CO[C@@H]1C[C@@H]2O [Taxol, paclitaxel]",little or no significant effect,"None of Gemcitabine (3 μg/ml), Taxol (15 ug/ml) or C6-Ceramide (10 ug/ml) alone had a significant effect","None of Gemcitabine (3 μg/ml), Taxol (15 ug/ml) or C6-Ceramide (10 ug/ml) alone had a significant effect","None of Gemcitabine (3 μg/ml), Taxol (15 ug/ml) or C6-Ceramide (10 ug/ml) alone had a significant effect",–,"cell death [1, 3]: 30%; cell death [1, 4]: neither of these two alone had any measurable effect; tumor volume and mouse survival (L3.6 pancreatic cells): minimal effects on tumor volume and mouse survival; effect on polarized entry of C6 ceramide (CaOV3 cells): disrupted the polarized pattern of C6 entry"
[Cl][Ni][Cl] [NiCl2],–,–,–,–,does not,–
CCCCC[C@@H](O)[C@H]1C(=O)O[C@H](C)[C@@H](O)/C=C/C=C/C=C/C=C/C=C(\C)[C@@H](O)C[C@H](O)C[C@H](O)C[C@H](O)C[C@H](O)C[C@H](O)C[C@@H]1O [Filipin],–,–,–,–,inhibited the C6 ceramide entry into the CaOV3 cells,–
COc1cccc2c1C(=O)c1c(O)c3c(c(O)c1C2=O)C[C@@](O)(C(=O)CO)C[C@@H]3O[C@H]1C[C@H](N)[C@H](O)[C@H](C)O1 [doxorubicin],–,–,–,–,–,effect on polarized entry of C6 ceramide (CaOV3 cells): had no such effect
"CCCCCCCCCCCCC/C=C/[C@@H](O)[C@H](CO)NC(=O)CCCCC [Fraction C6-ceramide, N-hexanoyl-D-sphingosine]",–,"None of Gemcitabine (3 μg/ml), Taxol (15 ug/ml) or C6-Ceramide (10 ug/ml) alone had a significant effect","None of Gemcitabine (3 μg/ml), Taxol (15 ug/ml) or C6-Ceramide (10 ug/ml) alone had a significant effect","None of Gemcitabine (3 μg/ml), Taxol (15 ug/ml) or C6-Ceramide (10 ug/ml) alone had a significant effect",–,"cell death [1, 3]: no effect; cell death [1, 4]: neither of these two alone had any measurable effect; tumor volume and mouse survival (L3.6 pancreatic cells): minimal effects on tumor volume and mouse survival; AKT/mTORC1 and ERK activation (AKT/mTORC1 and ERK): moderate inhibition"
